Results from publication PMC10343752, “Anti-α-Glucosidase, SAR Analysis, and Mechanism Investigation of Indolo[1,2-b]isoquinoline Derivatives” (Molecules, 2023).
Blank lines part the entries; values can stand above or below the molecule they belong to.

Assays:
[1] = target: T1, α-glucosidase from Saccharomyces cerevisiae (Saccharomyces cerevisiae, UniProt P53341); experiment: biochemical; assay type: biochemical; details: α-glucosidase 0.1 U/mL, PNPG 0.25 mM, pH 6.8, 37 °C; read-out: α-Glucosidase inhibitory activity IC50
T1 construct: purchased Sigma-Aldrich
T1 sequence (P53341 whole entry): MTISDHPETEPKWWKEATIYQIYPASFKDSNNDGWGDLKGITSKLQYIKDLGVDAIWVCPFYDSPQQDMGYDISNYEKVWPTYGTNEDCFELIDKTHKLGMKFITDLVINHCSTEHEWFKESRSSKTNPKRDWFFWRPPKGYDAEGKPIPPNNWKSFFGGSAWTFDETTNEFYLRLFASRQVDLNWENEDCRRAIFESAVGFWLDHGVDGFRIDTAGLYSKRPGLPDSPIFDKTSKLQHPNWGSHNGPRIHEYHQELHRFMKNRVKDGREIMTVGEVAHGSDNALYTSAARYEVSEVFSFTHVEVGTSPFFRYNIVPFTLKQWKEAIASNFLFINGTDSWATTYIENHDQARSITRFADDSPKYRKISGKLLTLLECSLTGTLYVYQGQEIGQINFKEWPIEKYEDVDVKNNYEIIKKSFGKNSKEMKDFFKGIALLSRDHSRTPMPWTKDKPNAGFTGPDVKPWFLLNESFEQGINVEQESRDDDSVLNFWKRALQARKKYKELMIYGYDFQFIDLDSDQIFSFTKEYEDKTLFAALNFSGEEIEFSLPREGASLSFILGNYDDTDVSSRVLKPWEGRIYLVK
Procedure: (§1) α-Glucosidase from Saccharomyces cerevisiae (EC 3.2.1.20) was purchased from Sigma-Aldrich. p-Nitrophenyl-α-D-[…] (PNPG) was obtained from Abcam. Other reagents were commercially available.
After the addition of PNPG (0.25 mM), the change in absorbance was measured at 405 nm. […] All experiments were performed four times.

α-glucosidase [2] = target: T2, α-glucosidase (Saccharomyces cerevisiae, UniProt P53341); experiment: CD spectra, secondary structure contents of α-glucosidase; assay type: binding
T2 construct: purchased Sigma-Aldrich
T2 sequence (P53341 whole entry): as above
Description: CD spectra were also monitored to study the effect of compounds 9, 11, 13, 18, and 19 on the conformational changes of α-glucosidase. As shown in Figure 7a–e, α-glucosidase presented two negative CD bands in the region of 190~280 nm, which was owed to the electronic transitions of n→π* of α-helical bonds. […] While treatment of compounds 9, 13, 18, and 19 led to an increase of α-helix and a reduction of β-sheet, β-turn, and random coils, respectively (Table 3). CD spectra have been an important method by which to study protein structural changes and secondary structural content. Previous research has shown that the interaction of an inhibitor with α-glucosidase caused the partial folding and loosening of the α-glucosidase structure.
as §1
Compounds 9, 11, 13, 18, and 19 with different concentrations were added into α-glucosidase solution (31 μM) and incubated for 5 min, respectively, then the CD spectra of the mixture were recorded. CDNN was used to analyze the ratio of protein secondary conformations.

α-glucosidase [3] = target: T2, α-glucosidase; experiment: 3D fluorescence spectra of α-glucosidase with compounds; assay type: binding; details: α-glucosidase 5 μM
Description: The 3D fluorescence spectra of α-glucosidase with compounds 9, 11, 13, 18, and 19 was investigated to analyze the effect of compounds on the structure of α-glucosidase, respectively. Two important characteristic peaks appeared in the 3D fluorescence spectra of α-glucosidase (Figure 6a,c,e,g,i), including Peak 1 ([…]), corresponding to the main chain structure of the polypeptide, and Peak 2 ([…]), corresponding to tyrosine and tryptophan residues. […] (Figure 6b,d,f,h,j). Previously, 3D fluorescence spectra have been used to determine protein conformation changes.
as §1
Compounds 9, 11, 13, 18, and 19 were added to α-glucosidase (5 μM) in 100 μL of PBS and incubated for 5 min, then the 3D fluorescence spectra of the mixture were recorded [32]^. The excitation and emission wavelengths were 200–500 nm and the slit width was 2.5 nm. All data were imported into Matlab for processing.

α-glucosidase [4] = target: T2, α-glucosidase; experiment: α-glucosidase inhibition kinetics (enzyme kinetics and Lineweaver-Burk substrate kinetics); assay type: biochemical
Description: Compounds 9, 11, 13, 18, and 19 with different α-glucosidase inhibitory activity were selected as representative compounds to reveal the inhibition mechanism of indolo[1,2-b]isoquinoline derivatives (1–21) on α-glucosidase by the implementation of an inhibition kinetics study. […] For substrate kinetics (Figure 5b,d,f,h,j), the Lineweaver-Burk plots of remaining enzyme activity versus […] treated with compounds 9, 11, 13, 18, and 19 intersected at one point in the second quadrant, respectively. The inhibition kinetics study was an effective method by which to understand the inhibition mechanism of the inhibitor against the target protein. In a substrate kinetics study, different inhibition mechanisms of inhibitors manifested as different intersection positions of Lineweaver-Burk plots. […] Moreover, compounds 9, 11, 13, 18, and 19 bind with both free enzyme and enzyme-substrate complexes to inhibit α-glucosidase. The inhibition kinetics constants of compounds 9, 11, 13, 18, and 19 were obtained and are listed in Table 2, including Ki, Kis, Km, and Vmax values, which might be helpful to understand the inhibition mechanism.
as §1
The kinetics of enzyme inhibition for compounds 9, 11, 13, 18, and 19 were obtained by plotting the enzymatic reaction rate versus enzyme concentration with or without compounds 9, 11, 13, 18, and 19, and the kinetics of substrate inhibition were measured using Lineweaver Burk plots of the enzymatic reaction rate versus substrate concentration with or without compounds 9, 11, 13, 18, and 19 [37, 38, 39, 40].

hepatocytes LO2 cells = experiment: In vitro cytotoxicity, MTT method; assay type: cell-based; details: 24 h, up to a concentration of 32 μM
Procedure: The in vitro cytotoxicity of compounds 9, 11, 13, 18, and 19 against hepatocytes LO2 cells was detected using the MTT method.
The in vitro cytotoxicity of compound 11 against hepatocytes LO2 cells was assayed using the MTT method. LO2 cells were cultured in DMEM containing 10% FBS, 100 IU/mL penicillin, and 100 IU/mL streptomycin at 37 °C under 5% CO2. An amount of 100 μL of LO2 cells was seeded into a 96-well plate (5000 per well) for 24 h, and was then treated with compounds 9, 11, 13, 18, and 19 for 24 h, respectively. Then, MTT solution was added into each well and incubated for 4 h. An amount of […] of DMSO was used to dissolve the obtained crystallization. Then, this absorbance was determined at 490 nm. Each sample was performed in triplicate.

[5] = molar ratio [α-Glu]:[Comp.] 1:1
[6] = molar ratio [α-Glu]:[Comp.] 1:2
[7] = molar ratio [α-Glu]:[Comp.] 1:3

SMILES: O=C1c2ccccc2-n2c1c(-c1ccccc1)c1ccccc1c2=O [Compound 1]
IC50 [1]: 23.46 ± 0.23 µM

SMILES: Cc1ccccc1-c1c2n(c(=O)c3ccccc13)-c1ccccc1C2=O [Compound 4]
IC50 [1]: 22.3 ± 0.63 µM

SMILES: CN(C)c1ccc(-c2c3n(c(=O)c4ccccc24)-c2ccccc2C3=O)cc1 [Compound 9]
effect on CD band intensity of α-glucosidase (α-glucosidase [2]; 190~280 nm): decrease in CD band intensity
Rndm Coil (α-glucosidase [2]; [5]): 35.10%
α-Helix (α-glucosidase [2]; [5]): 10.80%
β-Sheet (α-glucosidase [2]; [5]): 35.60%
β-Turn (α-glucosidase [2]; [5]): 19.30%
Rndm Coil (α-glucosidase [2]; [6]): 34.60%
α-Helix (α-glucosidase [2]; [6]): 13.00%
β-Sheet (α-glucosidase [2]; [6]): 31.90%
β-Turn (α-glucosidase [2]; [6]): 19.30%
Rndm Coil (α-glucosidase [2]; [7]): 33.40%
α-Helix (α-glucosidase [2]; [7]): 13.10%
β-Sheet (α-glucosidase [2]; [7]): 31.70%
β-Turn (α-glucosidase [2]; [7]): 19.10%
effect on fluorescence intensity of Peak 1 and Peak 2 of α-glucosidase (α-glucosidase [3]): decrease the fluorescence intensity
IC50 [1]: 40.9 ± 0.69 µM
inhibition type (substrate kinetics) (α-glucosidase [4]; Lineweaver-Burk plots): mixed-type inhibition
Ki (α-glucosidase [4]; inhibition kinetics constant): 30.5 µM
Kis (α-glucosidase [4]; inhibition kinetics constant): 96.19 µM
Vmax (α-glucosidase [4]; inhibition kinetics constant): 0.12 µM/min/mg
reversibility of inhibition (enzyme kinetics) (α-glucosidase [4]; plots of remaining enzyme activity versus enzyme concentration): reversible
effect on cell viability (hepatocytes LO2 cells): no significant effect on cell viability

SMILES: O=C1c2ccccc2-n2c1c(-c1ccccc1Cl)c1ccccc1c2=O [Compound 10]
IC50 [1]: 12.2 ± 0.46 µM

Further molecules by falling IC50 [1], results first:

IC50 [1]: 17.4 ± 0.25 µM
SMILES: Cc1ccc(-c2c3n(c(=O)c4ccccc24)-c2ccccc2C3=O)cc1 [Compound 2]

IC50 [1]: 16.1 ± 0.46 µM
SMILES: CCc1ccc(-c2c3n(c(=O)c4ccccc24)-c2ccccc2C3=O)cc1 [Compound 5]

IC50 [1]: 15.1 ± 0.44 µM
SMILES: COc1ccc(-c2c3n(c(=O)c4ccccc24)-c2ccccc2C3=O)cc1 [Compound 8]

IC50 [1]: 14.7 ± 0.37 µM
SMILES: O=C1c2ccccc2-n2c1c(-c1ccc(Cl)cc1)c1ccccc1c2=O [Compound 7]

IC50 [1]: 9.25 ± 0.14 µM
SMILES: Cc1cccc(-c2c3n(c(=O)c4ccccc24)-c2ccccc2C3=O)c1 [Compound 3]

IC50 [1]: 5.76 ± 0.26 µM
SMILES: CC(C)(C)c1ccc(-c2c3n(c(=O)c4ccccc24)-c2ccccc2C3=O)cc1 [Compound 6]
